Results published in patent US12139520B2 (priority 2020, dated 2024).
Numbered stars: 1 amine (or outer) side, 2 acyl side, 3 side chain; on linkers, the order of the positions; unused ones are H or OH. Bridge positions count the residues as written; N and C are the ends. Square brackets hold non-standard residues; d marks the D form. Peptide text beside a SMILES is read from it. * marks the point of attachment. C20 diacid = O=C(O)CCCCCCCCCCCCCCCCCCC(=O)*; γGlu = O=C(O)[C@H](CCC(=O)[*:2])N[*:1]; Hyp = O=C(O)[C@@H]1C[C@@H](O)CN1; Cit = NC(=O)NCCC[C@H](N)C(=O)O

What was measured:
hAM1 receptor = hAM1 receptor (Homo sapiens, UniProt O60895+Q16602); assay: cAMP assay for in vitro receptor activation, hAM1-R; assay type: cell-based; conditions: cAMP assay, hAM1 receptor; read-out: hAM1R EC50
hAM1 receptor, sequence (Q16602 23-461): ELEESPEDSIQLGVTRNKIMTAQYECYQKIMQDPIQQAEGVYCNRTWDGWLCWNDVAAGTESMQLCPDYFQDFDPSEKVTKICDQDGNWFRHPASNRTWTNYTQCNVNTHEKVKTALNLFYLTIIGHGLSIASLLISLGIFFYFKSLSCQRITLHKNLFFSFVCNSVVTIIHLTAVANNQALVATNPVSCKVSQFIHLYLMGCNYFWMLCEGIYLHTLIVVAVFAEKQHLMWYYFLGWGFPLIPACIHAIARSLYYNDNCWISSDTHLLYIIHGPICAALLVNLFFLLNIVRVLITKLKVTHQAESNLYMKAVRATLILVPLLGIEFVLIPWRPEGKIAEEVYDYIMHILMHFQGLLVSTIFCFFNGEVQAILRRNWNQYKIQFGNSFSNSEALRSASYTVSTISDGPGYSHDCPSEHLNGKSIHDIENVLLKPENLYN
hAM1 receptor, sequence (O60895 43-175 partner): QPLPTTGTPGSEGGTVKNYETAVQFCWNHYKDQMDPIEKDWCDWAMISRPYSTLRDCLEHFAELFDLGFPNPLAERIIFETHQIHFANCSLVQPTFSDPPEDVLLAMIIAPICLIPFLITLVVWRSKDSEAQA
Protocol: General Protocols for cAMP Assays for Measuring In Vitro Receptor Activation
Cells stably overexpressing the hAM1 receptor were obtained from Ogeda (now Astellas Pharma), sub-cloned and a monoclonal cell-line with an appropriate assay-window was expanded, aliquoted and frozen. An aliquot was thawed and plated in DPBS with 0.05% casein and 0.5 mM IBMX as 8000 cells/well in a 384-well format.

hAMY3 receptor = biological target: T1, hAMY3 receptor (Homo sapiens, UniProt O60896+P30988); assay: cAMP assay for in vitro receptor activation, hAMY3-R; assay type: cell-based; conditions: cAMP assay, hAMY3 receptor; read-out: hAMY3R EC50
T1 sequence (P30988 25-474): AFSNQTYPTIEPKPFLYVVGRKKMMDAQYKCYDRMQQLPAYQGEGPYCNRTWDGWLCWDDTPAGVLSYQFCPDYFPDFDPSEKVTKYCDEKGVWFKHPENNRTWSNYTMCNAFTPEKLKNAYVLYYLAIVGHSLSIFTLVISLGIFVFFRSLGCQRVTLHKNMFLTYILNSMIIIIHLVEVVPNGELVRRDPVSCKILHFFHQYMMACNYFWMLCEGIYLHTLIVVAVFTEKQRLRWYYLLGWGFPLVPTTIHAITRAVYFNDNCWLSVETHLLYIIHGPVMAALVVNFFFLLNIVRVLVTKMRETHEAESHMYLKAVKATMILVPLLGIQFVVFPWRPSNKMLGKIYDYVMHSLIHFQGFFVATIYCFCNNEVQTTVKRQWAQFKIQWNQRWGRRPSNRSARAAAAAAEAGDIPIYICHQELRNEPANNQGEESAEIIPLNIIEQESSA
T1 sequence (O60896 24-148 partner): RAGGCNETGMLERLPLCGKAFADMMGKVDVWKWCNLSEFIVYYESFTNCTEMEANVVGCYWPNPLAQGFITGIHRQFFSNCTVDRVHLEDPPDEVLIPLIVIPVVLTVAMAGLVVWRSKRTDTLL
Procedure, shortened: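 Receptor activation was measured as cAMP accumulation in a monoclonal cell line stably overexpressing hAMY3. Stimulation with graded doses lasted 30 min at room temperature in the presence of 0.5 mM IBMX, with human amylin as positive control.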

[1] = Physical stability of peptide analogues (Thioflavin T fibrillation); assay type: physicochemical; conditions: maximum ThT signal normalized between hAMY maximum and buffer background; 40° C., shaking, four days; pH 7 per table title
Procedure, shortened: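 ThT fluorescence (450 nm excitation, 480 nm emission; 4 μM dye) was read every 10 min over four days at 40° C under 700 rpm shaking stress, after 1 h in pH 4 acetate or pH 7 phosphate (50 mM). Peak smoothed signal expressed as percent, scaled between buffer background and hAMY maximum.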

| EC50 (hAM1 receptor) | EC50 (hAMY3 receptor) | Max ThT signal (%) [1] | Compound |
| --- | --- | --- | --- |
| > 5000 nM | – | – | CC[C@H](C)[C@H](NC(=O)[C@H](CCC(N)=O)NC(=O)[C@H](Cc1c[nH]cn1)NC(=O)[C@H](C)NC(=O)[C@H](CC(C)C)NC(=O)[C@H](CCCNC(=N)N)NC(=O)[C@H](CCC(N)=O)NC(=O)[C@@H](NC(=O)[C@@H](NC(=O)[C@@H]1CSSC[C@H](NC(=O)[C@H](CCCCN)NC(=O)CC[C@H](NC(=O)CCCCCCCCCCCCCCCCCCC(=O)O)C(=O)O)C(=O)N[C@@H](CC(N)=O)C(=O)N[C@@H]([C@@H](C)O)C(=O)N[C@@H](Cc2ccc(O)cc2)C(=O)N[C@@H]([C@@H](C)O)C(=O)N1)[C@@H](C)O)C(C)C)C(=O)N[C@@H](Cc1ccc(O)cc1)C(=O)N[C@@H](CCC(N)=O)C(=O)N[C@@H](Cc1ccccc1)C(=O)N[C@H](C(=O)N[C@@H](CC(=O)O)C(=O)N[C@@H](CCCCN)C(=O)N[C@@H](CC(=O)O)C(=O)N[C@@H](CCCCN)C(=O)N[C@@H](CC(=O)O)C(=O)N[C@@H](CC(N)=O)C(=O)N[C@H](C(=O)N[C@@H](C)C(=O)N1CCC[C@H]1C(=O)N1CCC[C@H]1C(=O)N[C@H](C(=O)N[C@@H](CC(N)=O)C(=O)N[C@H](C(=O)NCC(=O)N[C@@H](CO)C(=O)N[C@@H](CC(N)=O)C(=O)NCC(=O)N1C[C@H](O)C[C@H]1C(N)=O)C(C)C)[C@@H](C)O)C(C)C)[C@@H](C)O [compound 231] ({C20 diacid-γGlu}-KCNTYTCTVQRLAHQIYQFTDKDKDNVAPPTNVGSNG[Hyp]-NH2; disulfide 2-7) |
| > 5000 nM | – | – | CC[C@H](C)[C@H](NC(=O)[C@H](CCCCN)NC(=O)[C@H](CO)NC(=O)[C@H](CCCNC(=N)N)NC(=O)[C@@H]1CCCN1C(=O)[C@H](C)NC(=O)[C@@H](NC(=O)[C@H](CC(N)=O)NC(=O)[C@H](CC(=O)O)NC(=O)[C@H](CCCCN)NC(=O)[C@H](CC(=O)O)NC(=O)[C@H](CCCCN)NC(=O)[C@H](CC(=O)O)NC(=O)[C@@H](NC(=O)[C@H](Cc1ccccc1)NC(=O)[C@H](CCC(N)=O)NC(=O)[C@@H](NC(=O)[C@H](CC(C)C)NC(=O)[C@H](Cc1ccccc1)NC(=O)[C@H](CC(N)=O)NC(=O)[C@H](C)NC(=O)[C@H](CC(C)C)NC(=O)[C@H](CCCNC(=N)N)NC(=O)[C@H](CCC(N)=O)NC(=O)[C@@H](NC(=O)[C@H](C)NC(=O)[C@@H]1CSSC[C@H](NC(=O)[C@@H](N)CCCCN)C(=O)N[C@@H](CC(N)=O)C(=O)N[C@@H]([C@@H](C)O)C(=O)N[C@@H](C)C(=O)N[C@@H]([C@@H](C)O)C(=O)N1)[C@@H](C)O)C(C)C)[C@@H](C)O)C(C)C)C(=O)N[C@@H](CO)C(=O)N1CCC[C@H]1C(=O)N[C@@H](CCC(N)=O)C(=O)NCC(=O)N[C@@H](Cc1ccc(O)cc1)C(N)=O [compound 234] (H-KCNTATCATQRLANFLVQFTDKDKDNVAPRSKISPQGY-NH2; disulfide 2-7; N-terminus assumed) |
| > 5000 nM | – | – | CC[C@H](C)[C@H](NC(=O)[C@H](C)NC(=O)CNC(=O)[C@H](Cc1ccccc1)NC(=O)[C@H](CC(N)=O)NC(=O)[C@H](CC(N)=O)NC(=O)[C@H](CO)NC(=O)[C@H](CO)NC(=O)[C@H](Cc1c[nH]cn1)NC(=O)[C@@H](NC(=O)[C@H](CC(C)C)NC(=O)[C@H](Cc1ccccc1)NC(=O)[C@H](CC(N)=O)NC(=O)[C@H](C)NC(=O)[C@H](CC(C)C)NC(=O)[C@H](CCCNC(=N)N)NC(=O)[C@H](CCC(N)=O)NC(=O)[C@@H](NC(=O)[C@H](C)NC(=O)[C@@H]1CSSC[C@H](NC(=O)[C@@H](N)CCCCN)C(=O)N[C@@H](CC(N)=O)C(=O)N[C@@H]([C@@H](C)O)C(=O)N[C@@H](C)C(=O)N[C@@H]([C@@H](C)O)C(=O)N1)[C@@H](C)O)C(C)C)C(=O)N[C@@H](CC(C)C)C(=O)N1CCC[C@H]1C(=O)N[C@@H](CO)C(=O)N[C@H](C(=O)N[C@@H](CCCCN)C(=O)N[C@H](C(=O)NCC(=O)N[C@@H](CO)C(=O)N[C@@H](CC(N)=O)C(=O)NCC(=O)N[C@@H](Cc1ccc(O)cc1)C(N)=O)[C@@H](C)CC)[C@@H](C)O [compound 207] (H-KCNTATCATQRLANFLVHSSNNFGAILPSTKIGSNGY-NH2; disulfide 2-7; N-terminus assumed) |
| – | 0.013 nM | 13.450% | CC[C@H](C)[C@H](NC(=O)[C@H](CCC(N)=O)NC(=O)[C@H](Cc1c[nH]cn1)NC(=O)[C@H](C)NC(=O)[C@H](CC(C)C)NC(=O)[C@H](CCCNC(N)=O)NC(=O)[C@H](CCC(N)=O)NC(=O)[C@@H](NC(=O)[C@@H](NC(=O)[C@@H]1CSSC[C@H](NC(=O)CN)C(=O)N[C@@H](CCCNC(=N)N)C(=O)N[C@@H](Cc2ccccc2)C(=O)NCC(=O)N[C@@H]([C@@H](C)O)C(=O)N1)[C@@H](C)O)C(C)C)C(=O)N[C@@H](Cc1ccc(O)cc1)C(=O)N[C@@H](CCC(N)=O)C(=O)N[C@@H](Cc1ccccc1)C(=O)N[C@H](C(=O)N[C@@H](CC(=O)O)C(=O)N[C@@H](CCCCN)C(=O)N[C@@H](CC(=O)O)C(=O)N[C@@H](CCCCN)C(=O)N[C@@H](CC(=O)O)C(=O)N[C@@H](CC(N)=O)C(=O)N[C@H](C(=O)N[C@@H](C)C(=O)N1CCC[C@H]1C(=O)N[C@@H](CCCNC(=N)N)C(=O)N[C@H](C(=O)N[C@@H](CCCCN)C(=O)N[C@H](C(=O)NCC(=O)N1CCC[C@H]1C(=O)N[C@@H](CCC(N)=O)C(=O)NCC(=O)N1C[C@H](O)C[C@H]1C(N)=O)C(C)C)[C@@H](C)O)C(C)C)[C@@H](C)O [compound 259] (H-GCRFGTCTVQ[Cit]LAHQIYQFTDKDKDNVAPRTKVGPQG[Hyp]-NH2; disulfide 2-7) |
| – | 0.032 nM | 17.400% | CC[C@H](C)[C@H](NC(=O)[C@H](CCC(N)=O)NC(=O)[C@H](Cc1c[nH]cn1)NC(=O)[C@H](C)NC(=O)[C@H](CC(C)C)NC(=O)[C@H](CCCNC(=N)N)NC(=O)[C@H](CCC(N)=O)NC(=O)[C@@H](NC(=O)[C@@H](NC(=O)[C@@H]1CSSC[C@H](NC(=O)CN)C(=O)N[C@@H](CCCNC(=N)N)C(=O)N[C@@H](Cc2ccccc2)C(=O)NCC(=O)N[C@@H]([C@@H](C)O)C(=O)N1)[C@@H](C)O)C(C)C)C(=O)N[C@@H](Cc1ccc(O)cc1)C(=O)N[C@@H](CCC(N)=O)C(=O)N[C@@H](Cc1ccccc1)C(=O)N[C@H](C(=O)N[C@@H](CC(=O)O)C(=O)N[C@@H](CCCCN)C(=O)N[C@@H](CC(=O)O)C(=O)N[C@@H](CCCCN)C(=O)N[C@@H](CC(=O)O)C(=O)N[C@@H](CC(N)=O)C(=O)N[C@H](C(=O)N[C@@H](C)C(=O)N1CCC[C@H]1C(=O)N[C@@H](CCCNC(=N)N)C(=O)N[C@H](C(=O)N[C@@H](CCCCN)C(=O)N[C@H](C(=O)N[C@@H](CO)C(=O)N1CCC[C@H]1C(=O)N[C@@H](CC(N)=O)C(=O)NCC(=O)N1C[C@H](O)C[C@H]1C(N)=O)C(C)C)[C@@H](C)O)C(C)C)[C@@H](C)O [compound 134] (H-GCRFGTCTVQRLAHQIYQFTDKDKDNVAPRTKVSPNG[Hyp]-NH2; disulfide 2-7; N-terminus assumed) |
| – | 0.018 nM | 8.550% | CC[C@H](C)[C@H](NC(=O)[C@H](CCC(N)=O)NC(=O)[C@H](C)NC(=O)[C@H](C)NC(=O)[C@H](CC(C)C)NC(=O)[C@H](CCCNC(N)=O)NC(=O)[C@H](CCC(N)=O)NC(=O)[C@@H](NC(=O)[C@@H](NC(=O)[C@@H]1CSSC[C@H](NC(=O)[C@@H](N)CCCCN)C(=O)N[C@@H](CC(N)=O)C(=O)N[C@@H]([C@@H](C)O)C(=O)N[C@@H](C)C(=O)N[C@@H]([C@@H](C)O)C(=O)N1)[C@@H](C)O)C(C)C)C(=O)N[C@@H](Cc1ccc(O)cc1)C(=O)N[C@@H](CCC(N)=O)C(=O)N[C@@H](Cc1ccccc1)C(=O)N[C@H](C(=O)N[C@@H](CC(=O)O)C(=O)N[C@@H](CCCCN)C(=O)N[C@@H](CC(=O)O)C(=O)N[C@@H](CCCCN)C(=O)N[C@@H](CC(=O)O)C(=O)N[C@@H](CC(N)=O)C(=O)N[C@H](C(=O)N[C@@H](C)C(=O)N1CCC[C@H]1C(=O)N1CCC[C@H]1C(=O)N[C@H](C(=O)N[C@@H](CC(N)=O)C(=O)N[C@H](C(=O)NCC(=O)N[C@@H](CO)C(=O)N[C@@H](CC(N)=O)C(=O)NCC(=O)N1C[C@H](O)C[C@H]1C(N)=O)C(C)C)[C@@H](C)O)C(C)C)[C@@H](C)O [compound 243] (H-KCNTATCTVQ[Cit]LAAQIYQFTDKDKDNVAPPTNVGSNG[Hyp]-NH2; disulfide 2-7; N-terminus assumed) |
